Results from patent US20220016241A1, “COMPOSITIONS AND METHODS FOR REDUCING ANTIGEN-SPECIFIC IMMUNOGENICITY” (The Research Foundation for The State University of New York, priority 2013, published 2022).

Tests used:
FVIII = biological target: T1, FVIII (Homo sapiens, UniProt P00451); test: Binding of OPLS to FVIII by fluorescence spectroscopy
T1 construct: Full length recombinant human FVIII (Baxter Biosciences, Carlsbad, Calif.) was obtained as a gift; purchased Baxter Biosciences (gift from the Western New York Hemophilia Foundation)
Description: The binding of OPLS to several therapeutic proteins was evaluated using fluorescence spectroscopy (FIG. 2).

GAA peptide = biological target: T2, GAA peptide (Homo sapiens, UniProt P10253); test: Binding of OPLS to GAA peptide by ultraviolet/visible spectroscopy
T2 construct: purchased American Peptide Company (Sunnyvale, Calif.); host or cells: chemical synthesis
Text: Instead of using fluorescence to detect binding, ultraviolet/visible spectroscopy was used.

TGF-β = test: Cytokine profile of BMDCs in vitro, TGF-β ELISA; assay type: cell-based, HA mice; conditions: 1 μg/ml FVIII with 0-50 mM OPLS, 48 hours, n=4
Description: Generation of bone marrow derived dendritic cells (BMDC): Bone marrow was isolated from 6 to 8 week old naïve HA. Briefly, bone marrow was cultured in RPMI media supplemented with […] (low endotoxin), 2-mercaptoethanol, Pen/Strep and […] GMCSF. Media was changed on days 3, 6 and 8 of culture and DCs were used on day 9. BMDC are then harvested and used as needed. To verify the differentiation of bone marrow cells into DCs, CD11c surface expression was confirmed by flow cytometry using anti-CD11c-FITC antibody with appropriate isotope controls.
Effects of OPLS on cytokine profile of BMDCs in vitro: The effects of OPLS on cytokine secretion by dendritic cells were investigated. On day 9 BMDCs, generated as above, were treated with FVIII as an antigen in the presence of increasing dose of OPLS. Changes in production of pro-inflammatory cytokines TNF-α and IL12p70 as well as the regulatory cytokine TGF-β were monitored as a function of dose. BMDCs were exposed to 1 μg/ml FVIII with increasing dose of OPLS (0, 0.5, 1, 10, 25, 50 mM). 1 M stock of OPLS was prepared by adding the appropriate amount of OPLS directly to RPMI media, and pH was adjusted using sterile 3N and 1N NaOH. […] TGF-β, TNF-α and IL-12p70 concentrations were determined using standard ELISA (R&D System Inc. Minneapolis, Minn., USA or Invitrogen […], Calif.).

anti-GAA antibody titers = test: Effect of OPLS on immunogenicity of GAA protein; assay type: in vivo, mice; conditions: 5 mg dose with 1 μg GAA, 4 weekly s.c., 2 week rest
Description: Materials and Methods: GAA Source: Full length recombinant rhGAA was produced in Human Kidney Embryo Cells for our use by Creative Biomart (Shirley, N.Y.); OPLS Source: Sigma-Aldrich (St. Louis, Mo.). n=8 animals/group were immunized with 4 weekly s.c. injections of 1 μg of GAA in 100 μl of either sterile TRIS for the free group or in 5 mg OPLS in sterile TRIS for the OPLS-GAA group. A group of 8 mice will receive the same dose of CBrhGAA in 5 mg O-phospho-D-serine (OPDS) solution as a negative control. After a 2 week rest period, a blood sample from the saphenous vein will be collected. Samples were stored at −80° C. until analysis. These samples were then analyzed for anti-GAA Ab titers. Anti-GAA antibody titers were measured as follows: ELISA plate (maxisorp, NUNC) was coated with 50 μl of 5 μg/ml of sterile rhGAA in sodium carbonate-bicarbonate buffer pH =9.6. The plate was incubated overnight at 4° C. The plate was washed six times with PBS containing 0.05% Tween 20 (PBS-T, 250 μl/well) using an automated plate washer. The plate was blocked with PBS containing 1% BSA (300 μl/well) as the block buffer for 2 hr at 37° C. […] The reaction was stopped with 2 N sulfuric acid and read immediately at 450 nm using a micro-plate reader. The titer values are quantitated using a statistical endpoint method as described by Frey et al. Control plasma samples were run on each plate. […]

[1] = Plasma chemistry markers after 28 daily injections of OPLS; assay type: in vivo, CD-1 mice; conditions: up to highest dose, 1 day after dosing
Text: FIG. 21. Effect of 28 daily injections of a range of OPLS doses on plasma chemistry markers of CD-1 mice. Samples were collected from animals 1 day after the termination of dosing.

[2] = Plasma chemistry markers after 21 daily doses of OPLS; assay type: in vivo, rhesus macaques; conditions: 21 daily doses of 25 mg/kg, days 0, 8, 22
Description: FIG. 24. Effect of 21 daily doses of 25 mg/kg OPLS on plasma chemistry markers of rhesus macaques. Samples were drawn from the animals at baseline (day 0), at an intermediate time point during treatment (day 8) and 1 day after the termination of dosing (day 22).

anti-FVIII total titers = test: OPLS-FVIII sequential administration study; assay type: in vivo, Hemophilia A mice; conditions: 5 mg OPLS then 1 μg FVIII 5 minutes later, same site, 4 weekly sc; 4 weekly iv rechallenge
Description: To determine if OPLS can exert its immunomodulatory effects on the immune response to FVIII when the two are administered in separate injections temporally spaced apart, at the same injection site the following experiments were carried out. Hemophilia A mice (n=6 animals/group) were immunized with 4 weekly sc injections as follows. The control group of animals received one injection of sterile TRIS buffer (100 μL volume) then, after a 5 minute wait, they received a second injection of 1 μg FVIII in sterile TRIS (100 μL volume) at the same injection site. The second group of mice received one injection of 5 mg OPLS (100 μL volume) then, after a 5 minute wait, they received a second injection of 1 μg FVIII in sterile TRIS (100 μL volume) at the same injection site. After a two-week rest period (week 6) all of the mice were then rechallenged with 4 weekly intravenous injections of 1 μg of FVIII in 100 μL sterile TRIS […]. Mice were sacrificed after two weeks and a terminal blood sample was collected using cardiac puncture. Analysis was done by ELISA for total titers. […] This administration method was able to induce a hypo-responsiveness towards FVIII.

T1 sequence (P00451 20-2351): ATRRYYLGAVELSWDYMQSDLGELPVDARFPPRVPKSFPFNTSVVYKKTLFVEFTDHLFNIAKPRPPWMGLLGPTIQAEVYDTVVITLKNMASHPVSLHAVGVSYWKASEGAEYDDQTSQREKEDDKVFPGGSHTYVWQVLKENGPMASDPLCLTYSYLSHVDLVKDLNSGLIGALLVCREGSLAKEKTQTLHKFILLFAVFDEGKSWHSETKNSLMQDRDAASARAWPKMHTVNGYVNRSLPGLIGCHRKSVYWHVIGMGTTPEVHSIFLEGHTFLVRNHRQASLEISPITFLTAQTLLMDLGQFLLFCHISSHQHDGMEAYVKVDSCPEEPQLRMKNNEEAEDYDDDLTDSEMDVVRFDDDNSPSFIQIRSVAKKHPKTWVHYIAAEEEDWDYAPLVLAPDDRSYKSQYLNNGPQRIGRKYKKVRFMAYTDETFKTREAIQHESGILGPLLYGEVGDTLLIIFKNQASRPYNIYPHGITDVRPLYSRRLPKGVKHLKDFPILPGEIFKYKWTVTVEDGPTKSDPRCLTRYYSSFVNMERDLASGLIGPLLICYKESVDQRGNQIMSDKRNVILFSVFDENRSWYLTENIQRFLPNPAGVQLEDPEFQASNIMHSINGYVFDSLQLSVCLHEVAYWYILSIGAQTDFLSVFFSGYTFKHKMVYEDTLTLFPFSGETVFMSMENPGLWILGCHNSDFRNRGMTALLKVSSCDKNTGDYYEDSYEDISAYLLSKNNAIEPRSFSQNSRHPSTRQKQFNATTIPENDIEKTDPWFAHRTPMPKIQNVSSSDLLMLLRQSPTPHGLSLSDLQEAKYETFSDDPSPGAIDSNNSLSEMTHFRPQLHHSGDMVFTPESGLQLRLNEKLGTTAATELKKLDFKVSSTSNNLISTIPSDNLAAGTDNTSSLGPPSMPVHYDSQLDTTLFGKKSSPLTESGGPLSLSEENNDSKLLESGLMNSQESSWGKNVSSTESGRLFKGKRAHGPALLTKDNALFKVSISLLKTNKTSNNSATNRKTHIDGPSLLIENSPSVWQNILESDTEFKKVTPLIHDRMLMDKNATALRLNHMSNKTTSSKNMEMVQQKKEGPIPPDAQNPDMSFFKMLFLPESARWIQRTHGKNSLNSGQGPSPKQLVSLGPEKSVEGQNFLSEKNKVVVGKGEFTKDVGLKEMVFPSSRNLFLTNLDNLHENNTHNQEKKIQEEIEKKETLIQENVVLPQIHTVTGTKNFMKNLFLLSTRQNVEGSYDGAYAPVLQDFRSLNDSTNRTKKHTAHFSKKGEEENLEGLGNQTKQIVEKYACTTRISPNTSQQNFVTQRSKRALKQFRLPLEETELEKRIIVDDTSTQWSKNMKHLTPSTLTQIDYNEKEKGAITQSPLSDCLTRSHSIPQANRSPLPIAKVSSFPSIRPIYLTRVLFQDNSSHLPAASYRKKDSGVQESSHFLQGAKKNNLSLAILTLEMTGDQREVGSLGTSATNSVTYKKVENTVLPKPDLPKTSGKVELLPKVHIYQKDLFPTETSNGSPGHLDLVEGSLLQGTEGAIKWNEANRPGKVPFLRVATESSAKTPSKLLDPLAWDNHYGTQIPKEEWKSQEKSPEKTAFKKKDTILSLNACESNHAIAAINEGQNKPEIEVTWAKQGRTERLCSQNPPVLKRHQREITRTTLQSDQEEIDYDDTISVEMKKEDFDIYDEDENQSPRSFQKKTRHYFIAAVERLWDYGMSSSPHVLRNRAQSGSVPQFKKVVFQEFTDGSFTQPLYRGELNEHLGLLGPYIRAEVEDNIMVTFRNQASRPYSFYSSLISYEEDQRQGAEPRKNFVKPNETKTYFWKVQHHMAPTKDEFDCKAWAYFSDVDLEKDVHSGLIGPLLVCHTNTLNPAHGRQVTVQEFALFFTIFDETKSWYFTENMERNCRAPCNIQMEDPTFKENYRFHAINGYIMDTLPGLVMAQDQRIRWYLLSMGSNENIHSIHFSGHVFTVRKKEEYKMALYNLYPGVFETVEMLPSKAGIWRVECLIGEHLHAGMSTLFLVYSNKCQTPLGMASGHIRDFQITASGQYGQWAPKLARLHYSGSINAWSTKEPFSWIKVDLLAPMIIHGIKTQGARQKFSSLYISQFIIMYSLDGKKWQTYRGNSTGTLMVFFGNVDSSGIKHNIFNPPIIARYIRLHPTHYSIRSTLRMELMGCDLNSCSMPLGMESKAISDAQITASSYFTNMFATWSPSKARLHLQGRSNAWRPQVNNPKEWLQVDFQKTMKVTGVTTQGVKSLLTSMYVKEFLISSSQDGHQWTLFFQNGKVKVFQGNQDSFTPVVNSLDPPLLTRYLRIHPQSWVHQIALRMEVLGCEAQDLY
T1 sequence (P00451 20-1667 partner limits assumed): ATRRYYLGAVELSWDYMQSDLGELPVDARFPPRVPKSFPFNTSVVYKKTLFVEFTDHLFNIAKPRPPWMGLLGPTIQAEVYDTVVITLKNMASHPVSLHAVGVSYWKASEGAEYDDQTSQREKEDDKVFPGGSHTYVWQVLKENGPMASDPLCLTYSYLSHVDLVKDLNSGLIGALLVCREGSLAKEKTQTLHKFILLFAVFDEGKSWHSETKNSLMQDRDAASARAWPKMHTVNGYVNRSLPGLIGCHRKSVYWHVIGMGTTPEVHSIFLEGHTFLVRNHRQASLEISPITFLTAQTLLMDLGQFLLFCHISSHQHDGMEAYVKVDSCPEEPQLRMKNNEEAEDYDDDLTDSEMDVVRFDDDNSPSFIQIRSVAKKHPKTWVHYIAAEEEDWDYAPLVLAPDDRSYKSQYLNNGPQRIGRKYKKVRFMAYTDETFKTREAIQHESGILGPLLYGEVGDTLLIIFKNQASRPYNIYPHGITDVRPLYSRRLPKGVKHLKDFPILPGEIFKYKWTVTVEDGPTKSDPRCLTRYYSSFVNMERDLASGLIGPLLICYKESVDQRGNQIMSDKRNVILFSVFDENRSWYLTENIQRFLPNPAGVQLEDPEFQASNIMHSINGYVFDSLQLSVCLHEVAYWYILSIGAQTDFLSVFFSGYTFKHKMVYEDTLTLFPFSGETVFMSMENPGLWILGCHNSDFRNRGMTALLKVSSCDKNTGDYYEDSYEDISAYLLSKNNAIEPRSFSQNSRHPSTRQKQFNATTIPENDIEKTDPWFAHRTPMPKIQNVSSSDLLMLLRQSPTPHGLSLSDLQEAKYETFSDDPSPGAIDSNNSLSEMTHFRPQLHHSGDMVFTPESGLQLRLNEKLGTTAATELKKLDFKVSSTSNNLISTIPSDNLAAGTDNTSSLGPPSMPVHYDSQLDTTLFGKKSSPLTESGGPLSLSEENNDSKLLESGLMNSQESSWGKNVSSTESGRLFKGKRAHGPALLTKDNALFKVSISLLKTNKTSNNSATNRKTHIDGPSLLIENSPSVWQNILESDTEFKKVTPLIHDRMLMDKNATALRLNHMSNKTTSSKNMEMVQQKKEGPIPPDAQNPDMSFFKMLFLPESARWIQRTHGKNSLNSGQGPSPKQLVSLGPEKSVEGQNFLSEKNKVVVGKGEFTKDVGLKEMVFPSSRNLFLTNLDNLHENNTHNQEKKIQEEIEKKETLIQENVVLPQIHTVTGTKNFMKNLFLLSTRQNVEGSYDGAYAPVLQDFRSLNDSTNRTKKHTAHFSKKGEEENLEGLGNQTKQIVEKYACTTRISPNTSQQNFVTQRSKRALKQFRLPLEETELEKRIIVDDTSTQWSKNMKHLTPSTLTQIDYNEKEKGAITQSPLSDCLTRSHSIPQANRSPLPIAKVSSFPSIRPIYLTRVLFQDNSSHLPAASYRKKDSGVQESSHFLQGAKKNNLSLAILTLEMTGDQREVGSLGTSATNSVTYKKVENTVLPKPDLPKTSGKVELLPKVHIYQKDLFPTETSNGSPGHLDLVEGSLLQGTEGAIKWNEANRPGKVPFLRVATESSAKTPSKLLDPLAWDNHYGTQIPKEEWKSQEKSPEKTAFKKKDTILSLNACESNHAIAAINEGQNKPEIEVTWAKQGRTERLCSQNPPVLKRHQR

With N[C@@H](COP(=O)(O)O)C(=O)O [OPLS, O-Phospho-L-Serine] the Kd (FVIII; fluorescence titration, FIG. 2, read-out: Dissociation constant (Kd) of OPLS binding to FVIII) was 8.4 µM, the “Binding affinity of FVIII for OPLS” value (FVIII; spectroscopic titration) was “highest affinity” and the “Binding of GAA peptide to OPLS” value (GAA peptide) was “did not bind”. The “TGF-β production by BMDC” value (TGF-β) was “dose dependent increase”, the “Anti-GAA antibody titers vs GAA alone” value (anti-GAA antibody titers) was “lower” and the “Impact on renal and hepatic function (plasma chemistry markers)” value [1] was “no impact”. For the same molecule, the “Impact on renal and hepatic function (plasma chemistry markers)” value [2] was “no impact” and the “Total anti-FVIII titers after rechallenge vs free FVIII” value (anti-FVIII total titers) was “significantly lower”.
